{
  "source": "patent US9855250B1",
  "about": "“Method to treat lung cancer” (Macau University of Science and Technology, priority 2016, dated 2018)",
  "key": {"[1]": {"test_system": "phosphorylation of AMPK and ACC", "experiment": "Western blot analysis of AMPK and ACC phosphorylation in H1975 cells", "assay_type": "cell-based", "settings": "β-actin loading control", "method": "After incubating H1975 cells with the compound F321-0719 for 24 h, H1975 cells were harvested and washed with cold 1×PBS. Then, cells were lysed with ice-cold RIPA lysis buffer with protease and phosphatase inhibitors added to extract the cell protein extraction. The supernatants were collected by centrifugation at 12,000 g, for 5 minutes. The quantitation of total protein extraction was measured by Bio-Rad DCTM protein assay kit (Bio-Rad, Philadelphia, Pa., USA). Then 30 μg of protein were loaded and electrophoretically separated on 10% SDS-PAGE gel and then transferred to Nitrocellulose (NC) membrane. Membranes were blocked with 5% non-fat milk and […] containing 0.1% Tween-20 (TBST) for 1 hour at room temperature. After 1 hour, membranes were incubated with primary antibodies (1:1000 dilution) against β-actin, total/phosphor-ACC, total-AMPK, and against phosphor-AMPK, at 4° C. with gently shaking overnight. Membranes were washed with TBST for 3 times (5 minutes/time), and incubated with secondary fluorescent antibody (1:10000 dilutions) for 1 hour at room temperature. Rewashing with TBST for 3 times (15 minutes/time), the stripes were visualized by LI-COR Odessy scanner (Belfast, Me., USA)."}, "H1975 cells [2]": {"test_system": "H1975 cells", "experiment": "MTT cytotoxicity assay on H1975 NSCLC cells", "assay_type": "cell-based", "settings": "Homo sapiens, NCI-H1975, H1975, EGFR L858R/T790M, 72 h treatment", "method": "(§1) H1975 and CCD-19 Lu was purchased from ATCC (American type culture collection). H1975 was cultivated with RPMI 1640 medium supplement with 10% fetal bovine serum (Gibco, Big Cabin, Okla., ME, USA), 100 U/mL, penicillin and 100 μg/mL and streptomycin (Gibco, Big Cabin, Okla., ME, USA). CCD-19 Lu was cultivated with MEM medium supplemented with 10% FBS, 100 U/ml penicillin and 100 μg/ml streptomycin. All cells were cultivated at 37° C. in a humidified atmosphere of 5% CO2.\n(§2) H1975 cells were seeded in a 96-well microplate with 3000 cells/well confluence, and put into the incubator overnight for cells adhesion. Different concentrations of the compound F321-0719 were added with Dimethyl sulfoxide (DMSO) as vehicle control. The microplates were incubated for further 72 h. Each dosage was repeated in triplicate. 10 μL of MTT (5 mg/mL) solution was added to each well. The plate was placed back into the incubator for 4 hours. After that, 100 μL of resolved solution (10% SDS and 0.1 mM HCL) was added to each well. Before dissolving the formazan crystals, the microplate was put back into the incubator for another 4 hours. The absorbance of the plate was measured at 570 nm with reference 650 nm by a microplate reader (Tecan, Morrisville, N.C., USA). Cell viability was calculated by percentages of the absorbance of the treatment group divided by the absorbance of untreated group. […]"}, "H1975 cells [3]": {"test_system": "H1975 cells", "experiment": "Cell cycle analysis (PI staining, flow cytometry) in H1975 cells", "assay_type": "cell-based", "settings": "5 μM and 10 μM, 48 h", "method": "H1975 cells were plated with 1.5×10^5 cells/well at a 6-well plate and cultured overnight for attachment. Cells were treated with the compound F321-0775 at 0, 2.5, 5, 10 μM for 48 h. After treatment, all cells were harvested by trypsinization, and collected by centrifugation. After removing all suspension, cells were washed by PBS. Cells pellets were re-suspended in 70% ethanol at 4° C. overnight. Cells were centrifuged at 1000 rpm for 5 min to remove all the ethanol. Each cell pellet was re-suspended in 500 μl PI staining solution at 37° C. for 30 min in dark. Then, they were washed in PBS twice. Cells were re-suspended in 300 μl 1× binding buffer and transferred to the flow cytometer (BD FACS Aria III)."}, "H1975 cells [4]": {"test_system": "H1975 cells", "experiment": "Apoptosis assay (Annexin-V FITC/PI flow cytometry) in H1975 cells", "assay_type": "cell-based", "settings": "48 h treatment, vs control group", "method": "H1975 cells (1×10^5 cells/well) were seeded in a 6-well plate for 24 h, and treated with the indicated concentrations of the compound F321-0719 for an additional 48 h at 37° C. After 48 h, the cells were washed by ice-cold 1×PBS (Phosphate-buffered saline) once and harvested by trypsination. Then cells were centrifuged, collected and re-suspended in ice-cold 1×PBS. After removing the supernatants, cell pellets were re-suspended in 100 μL 1× Annexin-binding buffer. The cells were then double-stained with Annexin-V FITC and PI (100 μg/mL) of 2 μL respectively for 15 min at room temperature in dark. After that, 300 μL 1× Annexin-binding buffer was added. Apoptotic cells were quantitatively counted by a BD Aria III Flow Cytometer (BD Biosciences, San Jose, Calif., USA)."}, "CCD-19 Lu cells": {"test_system": "CCD-19 Lu cells", "experiment": "MTT cytotoxicity assay on normal lung fibroblast CCD-19 Lu cells", "assay_type": "cell-based", "settings": "72 h; even at concentration 20 times the IC50 on H1975 cells", "method": "as §1, §2"}, "[5]": {"experiment": "MTT cytotoxicity assay on normal lung fibroblast CCD-19 Lu cells", "assay_type": "cell-based", "settings": "human, CCD-19 Lu normal lung fibroblast cells, CCD-19 Lu normal lung cells, MTT", "method": "as §1, §2"}, "AMPK": {"test_system": "AMPK", "experiment": "AMPK enzyme activity assay (CycLex AMPK Kinase Assay Kit)", "assay_type": "biochemical", "settings": "at 2.5 μM of the compound", "from_the_text": "The CycLex AMPK Kinase Assay Kit (CycLex Co., Ltd., Nagano, Japan) was used to detect the activation of AMPK by the compound F321-0719. Compound C was used as AMPK inhibitor, and AMPK active enzyme was used as a positive control for phosphorylation."}},
  "data": [
    {"molecule": "O=C(Nc1cccc(-c2noc(C3CCCC3)n2)c1)c1cc2ccccc2[nH]1", "note": "[F321-0719]", "values": [
      {"measurement": "phosphorylation of AMPK and ACC (western blot)", "setting": "[1]", "result": "activated phosphorylation of both AMPK and ACC in a dose-dependent manner"},
      {"measurement": "IC50", "setting": "H1975 cells [2]", "result": "3.46 ± 1.71", "unit": "µM"},
      {"measurement": "G2 phase of cell cycle distribution", "setting": "H1975 cells [3]", "result": "increased"},
      {"measurement": "apoptosis level", "setting": "H1975 cells [4]", "result": "induced significant level of apoptosis in a concentration-dependent manner"},
      {"measurement": "cytotoxicity on CCD-19 Lu cells", "setting": "CCD-19 Lu cells", "result": "no cytotoxicity"},
      {"measurement": "IC50 at 72 h", "setting": "[5]", "result": "> 100", "unit": "µM"},
      {"measurement": "AMPK enzyme activity (fold of AMPK kinase group)", "setting": "AMPK", "result": "enhanced"}
    ]}
  ]
}
